A word on the MIC: it is the lowest concentration that inhibits growth of the organism. Broadly, the IC50 is the concentration that inhibits the measured activity by half.

≈ marks a conversion by molar mass, not a printed value. Where “and” joins values, the source holds several entries; their conditions need not be identical. Equal entries are not always repeated. Where two headings read alike, the source gives them in different places.

For data set [1], the system named is Mycobacterium avium complex CIT19/06. Nature of the data set: In vitro anti-mycobacterial evaluation, alamarBlue. The note with it: 5 days, NA = no significant activity.
Description: (§2) Clinical isolates of Mycobacterium avium complex CIT19/06 (MAC), M. avium paratuberculosis ATCC19698 (MAP), and M. kansasii CIT11/06 (MK) were grown in Middlebrook broth (MB), supplemented with Oleic, Albumin, Dextrose, Catalase supplement (OADC, Becton Dickinson, UK). […] At log phase growth, culture (10 mL) was centrifuged at 15,000 rpm/20 min using a bench top centrifuge (Model CR 4-12 Jouan Inc., UK). Following removal of the supernatant, the pellet was washed in fresh Middlebrook 7H9GC broth and re-suspended in fresh supplemented MB (10 mL). The turbidity was adjusted to match McFarland standard No. 1 (3 × 10^8 cfu) with MB broth. A further 1:20 dilution of the culture was then performed in MB broth.
(§3) The anti-microbial susceptibility of all three mycobacterial species was investigated in a 96-well plate format. […] Each evaluated compound (100 µL) was incubated with each of the mycobacterial species (100 µL). […] Following incubation, a 10% addition of alamarBlue (AbD Serotec) was mixed into each well and readings at 570 nm and 600 nm were taken, initially for background subtraction and subsequently after 24 h re-incubation. […] For non-interfering compounds, a blue colour in the well was interpreted as an absence of growth and a pink colour was scored as growth. […]
The test system of data set [2] is Staphylococcus epidermidis H 6966/08. Nature of the data set: In vitro anti-bacterial susceptibility, Mueller-Hinton broth. It counts as cell-based. To be noted: MIC = IC90 value, NA = no significant activity.
Data set [3] deals with M. avium paratuberculosis ATCC19698. Nature of the data set: In vitro anti-mycobacterial evaluation, alamarBlue. The data set is classed as cell-based. The note with it: 7 days, NA = no significant activity. (Alamar Blue is a resazurin reagent that responds to reducing activity.)
Data set [4] deals with photosynthetic electron transport (PET) in spinach chloroplasts. In words: Inhibition of photosynthetic electron transport (PET) in spinach chloroplasts, DCPIP photoreduction. It counts as biochemical, Spinacia oleracea L. To be noted: DCPIP photoreduction, pH 7.2. Here is the method:
Chloroplasts were prepared from spinach (Spinacia oleracea L.) according to Masarovicova and Kralova. The inhibition of photosynthetic electron transport (PET) in spinach chloroplasts was determined spectrophotometrically (Genesys 6, Thermo Scientific, USA), using an artificial electron acceptor 2,6-dichlorophenol-indophenol (DCIPP) according to Kralova et al., and the rate of photosynthetic electron transport was monitored as a photoreduction of DCPIP. The measurements were carried out in phosphate buffer (0.02 mol/L, pH 7.2) containing sucrose (0.4 mol/L), MgCl2 (0.005 mol/L) and NaCl (0.015 mol/L). The chlorophyll content was 30 mg/L in these experiments and the samples were irradiated (~100 W/m^2) from 10 cm distance with a halogen lamp (250 W) using a 4 cm water filter to prevent warming of the samples (suspension temperature 22 °C). The studied compounds were dissolved in DMSO due to their limited water solubility.

Data set [5] relates to methicilin resistant Staphylococcus aureus H 5996/08. In words: In vitro anti-bacterial susceptibility, Mueller-Hinton broth. The data set is classed as cell-based. The note with it: MRSA, methicillin-resistant Staphylococcus aureus, MIC = IC90 value, NA = no significant activity.
The subject of data set [6] is Trichophyton mentagrophytes 445. Nature of the data set: In vitro anti-fungal susceptibility, broth microdilution. The data set is classed as cell-based. To be noted: MIC = IC50 value, NA = no significant activity. Here is the method:
(§1) The broth microdilution test was used for the assessment of in vitro anti-fungal activity of the synthesized compounds against Absidia corymbifera 272 (AC) and Trichophyton mentagrophytes 445 (TM). Fluconazole (FLU) was used as the standard since it is a clinically used anti-mycotic drug. The procedure was performed with a two-fold dilution of the compounds in […]., Prague, Czech Republic) buffered to pH 7.0 with 0.165 mol of 3-morpholino-propane-1-sulfonic acid (MOPS, Sigma, Germany). […] Drug-free controls were included. […] The values of the minimum inhibitory concentration (MICs) were determined after 24 and 48 h of static incubation at 35 °C. For T. mentagrophytes, the final MICs were determined after 72 and 120 h of incubation.
(In general: Broth dilution looks for growth in wells or tubes with falling amounts of substance.)

The next data set concerns Absidia corymbifera 272. The description is as above. The data set is classed as cell-based. Here is the method:
as §1

A further data set concerns M. kansasii CIT11/06. In words: In vitro anti-mycobacterial evaluation, alamarBlue. To be noted: 5 days, NA = no significant activity.
The nature of data set [7]: Lipophilicity determination by RP-HPLC (capacity factor k / log k). It counts as physicochemical. To be noted: C18 column, MeOH 70% / H2O 30%, isocratic. Here is the method: Hydrophobicities (log P/Clog P) of the compounds 1-5 and 8-14 were calculated using two commercially available programs (ChemDraw Ultra 10.0 and ACD/LogP) and also measured by means of the RP-HPLC determination of capacity factors k with subsequent calculation of log k. The procedure was performed under isocratic conditions with methanol as an organic modifier in the mobile phase using an end-capped non-polar C18 stationary RP column. The results are shown in Table 1 and illustrated in Figure 1.
A Waters Alliance 2695 XE HPLC separation module and a Waters Photodiode Array Detector 2996 (Waters Corp., Milford, MA, USA) were used. A Symmetry® C18 5 μm, 4.6 × 250 mm, Part No. WAT054275 (Waters Corp., Milford, MA, USA) chromatographic column was used. The HPLC separation process was monitored by Empower™ 2 Chromatography Data Software, Waters 2009 (Waters Corp., Milford, MA, USA). A mixture of MeOH p.a. (70%) and H2O-HPLC – Mili-Q Grade (30%) was used as a mobile phase. The total flow of the column was 1.0 mL/min, injection volume 30 μL, column temperature 30 °C and sample temperature 10°C. The detection wavelength of 210 nm was chosen. The KI methanolic solution was used for the dead time (tD) determination. Retention times (tR) were measured in minutes. The capacity factors k were calculated using the Empower™ 2 Chromatography Data Software according to formula k = (tR - tD)/tD, where tR is the retention time of the solute, whereas tD denotes the dead time obtained using an unretained analyte. Log k, calculated from the capacity factor k, is used as the lipophilicity index converted to log P scale.

Details of data set [8]: method as in PMID 1151976. The note with it: parameter of the substituents in the anilide part; cited from earlier work.
Data set [9] relates to photosynthetic apparatus of spinach chloroplasts. In words: EPR spectra of treated spinach chloroplasts. The data set is classed as biochemical, Spinacia oleracea L. The note with it: 0.05 M of compound, under irradiation, versus untreated chloroplasts. How it is done:
Experiments were then performed to determine the site of action of the studied compounds in the photosynthetic apparatus. In Figure 2, EPR spectra of untreated chloroplasts and those treated with the very effective PET inhibitor, compound 3 (Table 2), are presented. The EPR spectrum of untreated chloroplasts recorded in the dark consists of the typical signal IIslow (g = 2.0046, ΔBpp= 2 mT, see Figure 2A - full line). An increase of EPR signal intensity in the light represents signal IIvery fast (g = 2.0046, ΔBpp= 2 mT; in Figure 2A it is the difference between dotted and full lines). These EPR signals belong to the intermediates D^• and Z^• respectively, which are tyrosine radicals situated in the 161st positions in D2 (for D) and D1 (for Z) proteins at the donor side of PS 2 [48, 49]. […]
EPR spectra were registered by the equipment ERS 230 (ZWG, Acad. Sci., Berlin, Germany), which operates in X-band (~9.3 GHz), with modulation amplitude 0.5 mT and microwave power 5 mW at room temperature. The samples containing chlorophyll (3.2 g/L) were measured in a flat quartz cell and their irradiation (~400 μE/m^2s PAR) was carried out directly in the resonance cavity with a 250 W halogen lamp from 0.5 m distance through 5 cm water filter.

Data set [10] relates to photosynthetic apparatus of spinach chloroplasts (PS 2 / PS 1). Nature of the data set: Site of action: restoration of PET by artificial electron donors (DPC, DCPIPH2). The data set is classed as biochemical, Spinacia oleracea L. Here is the method:
To further determine the site of action of the studied compounds, experiments with 1,5-diphenylcarbazide (DPC) were performed. DPC is an artificial electron donor for PS 2 with a known site of action in the Z^•/D^• intermediate. The site of action of the artificial electron acceptor 2,6-dichlorophenol-indophenol (DCPIP) used for monitoring the Hill reaction is plastoquinone on the acceptor side of PS 2 [51]. Thus, if the part of the photosynthetic electron transport chain between manganese cluster and Z/D is inhibited, then DPC will restore PET through PS 2.

The test system of data set [11] is photosynthetic electron transport (PET) in spinach chloroplasts. On the set-up: method as in earlier work. To be noted: standard, read-out: PET inhibition IC50; cited from earlier work.
Data set [12] relates to human SK-N-MC neuroepithelioma cell line. Nature of the data set: In vitro anti-proliferative activity, MTT assay. It counts as cell-based. The note with it: SK-N-MC cells, 72 h. How it is done: Therefore, the anti-proliferative activity of compounds 1-5 was examined against the human SK-N-MC neuroepithelioma cell line to determine if there were any undesired cytotoxic side-effects. The SK-N-MC cell line was chosen as the effect of iron chelators on the proliferation of these cells has been extensively examined. The anti-proliferative activity of the evaluated compounds was assessed in comparison to the well-known clinically used iron chelator, desferrioxamine (DFO), and the highly cytotoxic chelator, di-2-pyridylketone 4,4-dimethyl-3-thiosemicarbazone (Dp44mT).
The human SK-N-MC neuroepithelioma cell type was obtained from the American Type Culture Collection (Manassas, VA, USA) and was cultured in minimum essential medium (MEM; Gibco, Melbourne, Australia) containing 10% (v/v) FBS, 1.0 mM sodium pyruvate (Gibco), 1% (v/v) non-essential amino acids (Gibco), 2 mM L-glutamine (Gibco), 100 U/mL penicillin (Gibco), streptomycin (Gibco) and 0.28 μg/mL fungizone (Squibb Pharmaceuticals, Montreal, Canada). […]
The effect of the compounds on cellular proliferation was determined by the MTT [1-(4,5-dimethylthiazol-2-yl)-2,5-diphenyl tetrazolium] assay using standard techniques. […] After solubilization of the cells with 100 μL of 10% SDS-50% isobutanol in 0.01 M HCl, the plates were read at 570 nm using a scanning multi-well spectrophotometer.
For orientation: Tetrazolium assays rely on reduction of a dye to a coloured formazan, in cell work by metabolically active cells.

Setting [13] is: H6966/08, 24 h, read-out: MIC SE 24 h.
[14] abbreviates: H6966/08, 48 h, read-out: MIC SE 48 h.
Where [15] appears, read: Lichtheimia corymbifera, 272, 24 h, read-out: MIC AC 24 h.
[16] abbreviates: Lichtheimia corymbifera, 272, 48 h, read-out: MIC AC 48 h.

Description for M. kansasii CIT11/06: as §2, §3

For the compound `Cc1ccccc1NC(=O)c1ccccc1O` [Compound 1, 2-Hydroxy-N-(2-methylphenyl)benzamide], in [1], the “MIC/IC90 MAC” value was 250 µg/mL (≈ 1100 µM). For the same compound, the MIC in [2] (setting [13]) turned out to be 125 µM (≈ 28.4 µg/mL); in data set [2] (setting [14]) it was 250 µM (≈ 56.8 µg/mL); in data set [5] (24 h, read-out: MIC MRSA 24 h), 125 µM (≈ 28.4 µg/mL); in [5] (48 h, read-out: MIC MRSA 48 h) it was 250 µM (≈ 56.8 µg/mL); in data set [6] (72 h, read-out: MIC TM 72 h), 62.5 µM (≈ 14.2 µg/mL); in data set [6] (120 h, read-out: MIC TM 120 h), 125 µM (≈ 28.4 µg/mL). Besides, the MIC with Absidia corymbifera 272 (setting [15]) was determined as 62.5 µM (≈ 14.2 µg/mL); in the data set with Absidia corymbifera 272 (setting [16]), 250 µM (≈ 56.8 µg/mL). Further, the “MIC/IC90 MAP” value in data set [3] is 250 µg/mL (≈ 1100 µM). For the same compound, the IC50 in data set [4] was determined as 2.7 µM. For the same compound, in the data set with M. kansasii CIT11/06, the “MIC/IC90 MK” value stood at 125 µg/mL (≈ 550 µM). In [7], this compound yielded a log k of 0.6661. Moreover, the “MR (bulk parameter, reflecting bulkiness)” value in data set [8] is 4.7. In data set [8], the “σ (Hammett's parameter)” value was 0.10.
`COc1ccccc1NC(=O)c1ccccc1O` [Compound 3, 2-Hydroxy-N-(2-methoxyphenyl)benzamide]: the MIC in data set [2] (setting [13]) was more than 500 µM; in data set [2] (setting [14]) it was more than 500 µM; in data set [5] (24 h, read-out: MIC MRSA 24 h), 500 µM (≈ 122 µg/mL); in data set [5] (48 h, read-out: MIC MRSA 48 h), more than 500 µM; in data set [6] (72 h, read-out: MIC TM 72 h) it was 125 µM (≈ 30.4 µg/mL); in data set [6] (120 h, read-out: MIC TM 120 h) it was 125 µM (≈ 30.4 µg/mL). Moreover, the MIC with Absidia corymbifera 272 (setting [15]) and with Absidia corymbifera 272 (setting [16]) was 125 µM (≈ 30.4 µg/mL) each time. Besides, in [9], the “intensity of the EPR signal (signal I) in irradiated chloroplasts” value is “marked increase”. In addition, in data set [10] (DCPIPH2 40 μmol/L added to treated chloroplasts), the “restoration of PET through PS 1 after addition of DCPIPH2” value is given as “completely restored”. Further, the “restoration of PET through PS 2 after addition of DPC” value in [10] (DPC 2 mmol/L added to treated chloroplasts) was “not restored”. Besides, in [4], the IC50 is 1.6 µM. This compound also gave a log k in data set [7] of 0.6770. Also, the “MR (bulk parameter, reflecting bulkiness)” value in data set [8] is recorded as 6.5. Also, the “σ (Hammett's parameter)” value in [8] is 0.00.
Take `CN(C)C(=O)Nc1ccc(Cl)c(Cl)c1` [DCMU, 3-(3,4-dichlorophenyl)-1,1-dimethylurea]: the IC50 in [11] was ~1.9 µM and 1.9 µM.
Consider `CC(=O)N(O)CCCCCNC(=O)CCC(=O)N(O)CCCCCNC(=O)CCC(=O)N(O)CCCCCN` [DFO, desferrioxamine], for which, in data set [12] (Homo sapiens), the IC50 was found to be 17.1 ± 3.77 µM.
Turning to `CN(C)C(=S)NN=C(c1ccccn1)c1ccccn1` [Dp44mT, di-2-pyridylketone 4,4-dimethyl-3-thiosemicarbazone], the IC50 in [12] came out at 0.01 ± 0.01 µM.
As to `NNC(=O)c1ccncc1` [INH, Isoniazid, reference compound], in data set [1], the “MIC/IC90 MAC” value is recorded as less than 10 µg/mL. In addition, the “MIC/IC90 MAP” value in data set [3] is more than 250 µg/mL. Further, the “MIC/IC90 MK” value against M. kansasii CIT11/06 was less than 10 µg/mL.

(Values after article PMC6259458, “Investigating the Spectrum of Biological Activity of Ring-Substituted Salicylanilides and Carbamoylphenylcarbamates” (Molecules, 2010).)
